Measurements reported in patent US20260000079A1, “COMPOSITIONS AND METHODS FOR MODULATING IMMUNITY IN PLANTS” (BOYCE THOMPSON INSTITUTE FOR PLANT RESEARCH, INC., priority 2019, published 2026).

Key:
[1] = test system: Arabidopsis, tomato, and wheat roots; test: LC-MS comparative metabolomics of ascr #18-treated plant roots; type: in vivo
Experimental: Plant tissues were immediately frozen in liquid nitrogen and ground to a fine powder and extracted with 350 μL mixture of water/methanol/chloroform (1:2:1) for 12 hours at 4° C., with shaking at 220 rpm. The extracts were dried in vacuo, resuspended in 100-200 μL of 80% methanol and analyzed by LC/MS. For root tissues, seedlings were extensively washed three times with the excess amount of distilled water and dried on filter paper. The root tissues from 40 seedlings were pooled in one tube and then similarly extracted. Mixed stage C. elegans culture extract was prepared as described (Panda, et al. (2017) Angew Chem. Int. Ed. Engl. 56(17): 4729-4733).
High resolution LC-MS analysis was performed on a Dionex™ 3000 UPLC system coupled with a Thermo Q Exactive™ high-resolution mass spectrometer as described (Artyukhin, et al. (2018) J. Am. Chem. Soc. 140 (8): 2841-2852; Panda, et al. (2017) Angew Chem. Int. Ed. Engl. 56 (17): 4729-4733). Metabolite extracts were separated using water-acetonitrile gradient using Agilent ZORBOX Eclispse XDB-C18 rapid resolution column (2.1 mm×150 mm, particle size 1.8-micron) maintained at 40° C. Solvent A: 0.1% formic acid in water; Solvent B: 0.1% formic acid in acetonitrile. […] Ascarosides were detected in negative ionization mode as [M-H]— and MS/MS spectra and retention times confirmed by comparison with known standards. […]

[2] = test system: Arabidopsis root exudates; test: LC-MS of root exudates of ascr #18-treated Arabidopsis seedlings; type: in vivo, Arabidopsis thaliana
Experimental: Data are average±SEM (n=6), n.d.=not detected. […] Exudates from approximately 40 seedlings were collected in distilled water and pooled. Abundances of ascarosides are shown as the peak area, as measured by LC-MS. Data are average±SEM (n=3); n.d.=not detected. FIGS. 5C and 5D show the relative abundances of ascarosides in root exudates of eight-day old tomato seedlings treated with 10 nM (FIG. 5C) or 1000 nM (FIG. 5D) ascr #18 for 6 hours. Exudates from approximately 10 seedlings were collected in distilled water and pooled. Abundances of ascarosides are shown as the peak area, as measured by LC-MS. Data are average±SEM (n=3); n.d.=not detected. FIG. 5E provides the relative abundances of ascr #10, ascr #1, and ascr #9 in the growth media of eight-day old tomato seedlings supplemented with 1 μM ascr #18. Ten-gram media samples were collected at different time points over a 48 hour period for metabolome extraction. Abundances of ascarosides are shown as the peak area, as measured by LC-MS.
To test this possibility, root-secreted metabolites of ascr #18- and mock-treated Arabidopsis were compared (FIG. 5A). For this experiment, 10-day old Arabidopsis seedlings were treated in growth media supplemented with ascr #18 for 6 hours prior to collection of exudates from roots submerged in water. […] Analogous results were obtained in experiments with tomato roots (FIG. 5C, 5D).

Arabidopsis leaves = test: LC-MS time course of Arabidopsis leaves infiltrated with ascr #18; type: in vivo, Arabidopsis thaliana; settings: Arabidopsis leaves infiltrated with 1 μM ascr #18
Excerpt: FIG. 2A provides LC-MS analysis of tomato roots treated with ascr #18 or ^13C2-labeled ascr #18. Plants treated with ^13C2-labeled ascr #18 show peaks at 333.21932 and 249.12542, representing [M-H]^− of ^13C2-ascr #18 and ^13C2-ascr #9, but not at 331.21261 and 247.11871, which correspond to [M-H]^− of ascr #18 and ascr #9, and vice versa. Structures of ascr #18 and ascr #9 indicating the positions of the ^13C2-label are shown above ion chromatograms. Peaks marked with an asterisk represent unrelated peaks. FIGS. 2B and 2C provide graphs showing the relative abundances of ascr #18 and ascr #9, respectively, as measured by LC-MS. Four-week old Arabidopsis leaves were infiltrated with 1 μM ascr #18, and leaf tissue were harvested for LC-MS analyses over a period of 96 hours post infiltration of ascr #18. Data are averages±SEM (n=3). FIG. 2D provides LC-MS analyses of tomato leaves infiltrated with 1 μM ascr #18. Tissues were collected over a 12 hour period. Abundances of ascr #18 and ascr #9 are shown as the peak area, as measured by LC-MS. […] To test whether microbes are required for the observed metabolic transformations, leaves of 4-week old Arabidopsis plants were directly infiltrated with ascr #18 and leaf tissue was subsequently harvested for analysis by LC-MS as above. […] About 50% of ascr #18 was metabolized during the first 12 hours, during which time concomitant accumulation of ascr #9 was observed. Formation of ascr #9 was also observed in leaves of 4-week old tomato plants infiltrated with ascr #18 (FIG. 2D).

tomato leaves = test: LC-MS analysis of tomato leaves infiltrated with ascr #18; type: in vivo, Solanum lycopersicum; settings: 4-week old tomato plants infiltrated with 1 μM ascr #18
Excerpt: FIG. 2A provides LC-MS analysis of tomato roots treated with ascr #18 or ^13C2-labeled ascr #18. Plants treated with ^13C2-labeled ascr #18 show peaks at 333.21932 and 249.12542, representing [M-H]^− of ^13C2-ascr #18 and ^13C2-ascr #9, but not at 331.21261 and 247.11871, which correspond to [M-H]^− of ascr #18 and ascr #9, and vice versa. Structures of ascr #18 and ascr #9 indicating the positions of the ^13C2-label are shown above ion chromatograms. Peaks marked with an asterisk represent unrelated peaks. FIGS. 2B and 2C provide graphs showing the relative abundances of ascr #18 and ascr #9, respectively, as measured by LC-MS. Four-week old Arabidopsis leaves were infiltrated with 1 μM ascr #18, and leaf tissue were harvested for LC-MS analyses over a period of 96 hours post infiltration of ascr #18. Data are averages±SEM (n=3). FIG. 2D provides LC-MS analyses of tomato leaves infiltrated with 1 μM ascr #18. Tissues were collected over a 12 hour period. Abundances of ascr #18 and ascr #9 are shown as the peak area, as measured by LC-MS. […] To test whether microbes are required for the observed metabolic transformations, leaves of 4-week old Arabidopsis plants were directly infiltrated with ascr #18 and leaf tissue was subsequently harvested for analysis by LC-MS as above. […]

Row | SMILES | uptake and metabolism of ascr #18 in roots ([1]; roots soaked 24 hours in ascr #18 solution, monocots and dicots) | ascarosides in root exudates of acx1acx5 ([2]; acx1acx5 seedlings, 10 nM ascr #18 for 6 hours) | ascr #18 metabolized (Arabidopsis leaves; first 12 hours) | abundance among ascr #18-derived metabolites in roots (LC-MS peak area) ([1]; all three plant species, ascr #18 root treatment 24 hours) | formation of ascr #9 in leaves (tomato leaves) | relative abundance among root-excreted ascr #18 metabolites ([2]; Arabidopsis) | secretion of ascr #18 metabolites via roots ([2]; ascr #18-treated wildtype, 6 hours treatment) | time of peak ascr #9 concentration post-infiltration (Arabidopsis leaves) [h] | ascr #9 concentration at 96 hours (Arabidopsis leaves; 96 hours)
1 | CC1O[C@@H](O[C@@H](C)CCCCCCCCC(=O)O)C(O)C[C@H]1O (stereo in doubt) [ascr #18, (10R)-(3′R,5′R-dihydroxy-6′S-methyl-(2H)-tetrahydropyran-2-yloxy)-undecanoic acid] | taken up and subsequently metabolized into ascarosides with shorter fatty-acid side chains | larger amounts of residual ascr #18 than in wildtype | About 50% | – | – | – | – | – | –
2 | C[C@H](CCC(=O)O)O[C@@H]1O[C@@H](C)[C@H](O)C[C@H]1O [ascr #9] | – | – | – | most abundant differential metabolite | observed | most abundant | secretion | ≤ 12 | very low levels
